Source: PubChem BioAssay (NCI)
“And” between values parts separate entries of the source, which are not always exact repeats. Equal entries are not always repeated.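 Compound exposure: 48 hours, 5 concentrations, 96-well plates. Abbreviation: GI50, concentration required for 50% inhibition of growth. TGI: total growth inhibition.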

Legend:
Test in all cases: NCI tumour cell line growth inhibition, 48 h
A549 NSCLC = test system: A549 NSCLC
ACHN renal = test system: ACHN renal
CCRF-CEM leukemia = test system: CCRF-CEM leukemia
M14 melanoma = test system: M14 melanoma
NCI-H226 lung = test system: NCI-H226 lung
NCI-H460 lung = test system: NCI-H460 lung
OVCAR-8 ovarian = test system: OVCAR-8 ovarian
SR leukemia = test system: SR leukemia
NCI-H23 lung = test system: NCI-H23 lung
OVCAR-3 ovarian = test system: OVCAR-3 ovarian

Row | Structure (SMILES) | TGI (A549 NSCLC) [µM] | TGI (ACHN renal) [µM] | TGI (CCRF-CEM leukemia) [µM] | TGI (M14 melanoma) [µM] | TGI (NCI-H226 lung) | TGI (NCI-H460 lung) [µM] | TGI (OVCAR-8 ovarian) | TGI (SR leukemia) [µM] | TGI (NCI-H23 lung) [µM] | TGI (OVCAR-3 ovarian) [µM] | GI50 (A549 NSCLC) [µM] | GI50 (CCRF-CEM leukemia) [µM] | GI50 (NCI-H226 lung) [µM] | GI50 (NCI-H23 lung) [µM] | GI50 (NCI-H460 lung) [µM] | GI50 (OVCAR-8 ovarian) [µM] | GI50 (M14 melanoma) [µM] | GI50 (OVCAR-3 ovarian) [µM]
1 | COC(=O)C12Oc3ccc(-c4ccc5c(c4O)C(O)=C4C(=O)CC(C)C(O)C4(C(=O)OC)O5)c(O)c3C(O)=C1C(=O)CC(C)C2O (stereo not drawn) | > 100 | > 32.1 | 0.0848 | 0.89 | 4.36 µM | > 100 | > 100 µM | 0.224 |  |  |  |  |  |  |  |  |  | 
2 | COc1ccc(C2=NNC(=O)c3ccccc3N2c2nc(-c3cccs3)nc3cc(OC)c(OC)cc23)cc1 | > 100 | 13.3 |  | 20.2 | 20.6 µM | > 100 | > 100 µM | > 100 | > 100 | 9.24 |  |  |  |  |  |  |  | 
3 | CC(NNC(=O)c1ccncc1)c1cccc(C(F)(F)F)c1 (stereo not drawn) | > 100 | > 100 | > 100 | > 100 | > 100 µM | > 100 | > 100 µM | > 100 | > 100 |  |  |  |  |  |  |  |  | 
4 | C(=C/c1nnnn1-c1ccccc1)/Nc1ccccc1 | > 100 | > 100 | > 100 | 77.3 | 61.6 µM | > 100 | > 100 µM |  | 79.2 | 96 |  |  |  |  |  |  |  | 
5 | O=C1C(=C([O-])c2ccccc2)C(=O)c2ccccc21.O=C1C(=C([O-])c2ccccc2)C(=O)c2ccccc21.[Ni+2] | > 100 |  | > 100 |  | 63.5 µM | > 100 | > 100 µM |  | > 100 |  | 52.5 | 54.7 | 4.68 | 37.4 | 33.9 | 48.1 |  | 
6 | CCO/C(O)=c1/s/c(=C(\C#N)c2nc3ccccc3[nH]2)n(-c2ccccc2)c1=N | > 100 | > 100 | > 100 | > 100 | > 100 µM | > 100 | > 100 µM |  | > 100 | > 100 |  |  |  |  |  |  |  | 
7 | Cn1cc2c3ccccc3nc-2c2ccccc21 | 5.65 | 5.81 | 5.99 | 4.4 |  | 4.34 | 3.42 µM | 2.1 | 3.15 | 6.88 |  |  |  |  |  |  |  | 
8 | CC1OC(O[C@@H]2C=C3CC[C@@H]4[C@H](CC[C@]5(C)[C@@H](c6ccc(=O)oc6)CC[C@]45O)[C@@]3(C)CC2)C(O)C(OC2OC(CO)C(O)C(O)C2O)C1O (stereo partly drawn) | 0.000142 | 0.00301 | 0.133 | 0.0148 | 0.0549 µM and 0.0732 µM | 0.00143 | 0.0162 µM and 0.0299 µM |  | 0.0236 | 0.0253 |  |  | 0.0101 |  |  |  | 0.00096 | 0.000162
9 | Cc1cc(C)c2c(n1)S(=O)(=O)N(CCCN1CCN(c3cccc(Cl)c3)CC1)/C(=C(\O)c1ccc(Br)cc1)C2=O | 71 | > 100 | > 100 | > 100 |  | 33.2 | > 100 µM | > 100 | > 100 | 94.7 |  |  |  |  |  |  |  | 
10 | COc1ccc(Nc2nc(N)c(C(=O)c3ccc(Cl)cc3)s2)cc1 | 22.3 | 31.5 |  | > 64.4 | 0.117 µM | 4.62 | 15 µM |  | 6.78 | 0.421 |  |  |  |  |  |  |  | 
11 | CCCCCCCCCCCCOC1C(COCCN2CCCCC2)OC2OC(C)(C)OC21 (stereo not drawn) | 19.9 | 4.69 | 2.99 | 2.99 | 17.6 µM | 3.48 | 3.41 µM |  | 6.06 | 7.25 |  |  |  |  |  |  |  | 
12 | Cc1ccc(S(=O)(=O)N(CCNC(=O)c2cccc(O)c2O)c2cc3c4c(c2)Oc2cccc5c2C4(C)c2c(cccc2O3)O5)cc1 | > 100 | > 100 |  | > 100 | 65.8 µM | > 100 | > 100 µM | > 100 | > 100 | > 100 |  |  |  |  |  |  |  | 
13 | C=CCOC(=O)Cn1ccc(=O)[nH]c1=O | > 100 | > 100 | > 100 | > 100 | > 100 µM | > 100 | > 100 µM | > 100 | > 100 |  |  |  |  |  |  |  |  | 
14 | COC(=O)c1ccccc1C1CN=NC12Cc1ccc3c(c1C2=O)CCC3 (stereo not drawn) | > 100 | > 100 | > 100 | > 100 | > 100 µM | > 100 | > 100 µM |  | > 100 | > 100 |  |  |  |  |  |  |  | 
15 | COC(=O)c1c2c(cc3c1CC1(Cc4ccccc4C1)C3)CCC2 | > 100 | 86.8 | 40.9 |  | > 100 µM | > 100 | > 100 µM | 54.2 | > 100 | 47.6 |  |  |  |  |  |  |  | 
16 | CN1C(=O)C23CCCC2CC1(c1ccccc1)S3 (stereo not drawn) | > 100 | > 100 |  | > 100 | > 100 µM |  | > 100 µM | > 100 | > 100 | > 100 |  |  |  |  |  |  |  | 
17 | O=C1c2cccnc2-c2nccc3c2c1nc1ccccc13 | 0.739 |  | 10.2 | 0.269 | 0.738 µM | 0.606 | 1.61 µM |  | 0.518 | 0.0987 |  |  |  |  |  |  |  | 
18 | O=c1/c(=C/c2ccccn2)sc2nc3cc4c(cc3n12)OCCO4 | > 100 | > 100 | > 100 | > 100 | > 100 µM | > 100 | > 100 µM |  | > 100 | > 100 |  |  |  |  |  |  |  | 
19 | CC(=O)OCC1OC(N=[N+]=[N-])C(OC(C)=O)C(OC(C)=O)C1OC1OC(COC(C)=O)C(OC(C)=O)C(OC(C)=O)C1OC(C)=O (stereo not drawn) | > 100 | > 100 | > 100 | > 100 |  | > 100 | > 100 µM |  | > 100 | > 100 |  |  |  |  |  |  |  | 
20 | CCOC(=O)N1CCC2(CC1)C[C@@](C(C)=O)(c1ccccc1)C(C)O2 (stereo partly drawn) | > 100 | > 100 |  | > 100 | > 100 µM | > 100 | > 100 µM |  | > 100 | > 100 |  |  |  |  |  |  |  | 
21 | O=S(=O)(/N=C(\NO)Nc1ccc(Cl)cc1)c1cc2ccccc2s1 | 38.1 | 30.5 | 87.5 | 33.3 | 33.2 µM | > 100 | 30.7 µM |  | 30.5 | 32.4 |  |  |  |  |  |  |  | 
22 | COc1ccc(-c2cc(-c3ccc(Nc4ccnc5cc(Cl)ccc45)cc3)[nH]c(=O)c2C#N)cc1 | > 100 | > 100 |  | > 100 | > 100 µM | > 100 | > 100 µM | > 100 | > 100 | > 100 |  |  |  |  |  |  |  | 
